Experimental data taken from US5008246A, “Novel peptides suppressing the function of the immune system, pharmaceutical compositions containing them and process for preparing same” (Richter Gedeon Vegyeszeti Gyar R. T., priority 1988, dated 1991).
Where a SMILES comes first, the peptide text is derived from it. [ ]: non-standard residue; d: D form.

How the values were obtained:
resting macrophages = experiment: Effect on the phagocytating capacity of resting macrophages; assay type: in vivo, male NZB (OLAC-SzKB) mice; conditions: 1 mg/kg s.c. daily for 4 days; count of phagocytated opsonized yeast cells by peritoneal macrophages vs untreated animals
Procedure: These examinations were carried out on 6 months old male NZB (OLAC-SzKB) mice according to the method described in J. Immunopharmnacol. 4, 265 (1982-1983). The animals were treated daily with a 1 mg/kg subcutaneous (s.c.) dose of the test substances for 4 days. After bleeding the animals, their peritonea were washed with 8 ml of PBS buffer solution (pH 7.2) each containing 10 IU of heparin. The cell suspension washed out from the peritoneum was made free of the erythrocytes by shocking with distilled water, then washed 3 times with PBS buffer solution. The sedimentation between two washings was achieved by centrifuging at 1000 rpm for 5 minutes. Then, the concentration of each cell suspension was adjusted to 10^6 cell/ml and the suspension was settled for 30 minutes in a Boyden-chamber at 37° C. in an atmosphere containing 5% of carbon dioxide. Over the macrophages adhered to the glass wall, opsonized yeast was layered. After removing the non-phagocytated particles, those incorporated by the macrophages were counted in each cell. In Table 3, the percentage of decrease in the count of the phagocytated yeast cells is given in relation to the macrophages isolated from the untreated animals as control.

contact dermatitis = experiment: Inhibition of the contact dermatitis (oxazolone, method of Evans et al.); assay type: in vivo, male BALB/c (LATI) mice; conditions: oxazolone-sensitized mice, 1.0 mg/kg i.p.; ear weight difference after 24 hours vs physiological saline control
Procedure: These investigations were carried out on male BALB/c (LATI) mice with 20 to 22 g body-weight by using the method of Evans et al. [Br. J. Pharmacol. 43, 403 (1971)]. The abdominal side of the animals were depilated, then the naked abdominal skin of each animal was sensitized by 0.1 ml of the oxazolone solution of 2% in sunflower oil. After 1 week, the mice were i.p. treated with an 1.0 mg/kg dose of the test substance (dissolved in physiological saline solution), then the right ear of the animals was directly treated with 10 μl of an acetone solution containing 2% oxazolone while their left ear was treated with 10 μl of acetone. After 24 hours, their ears were cut off and weighed. The difference between the weight of treated and untreated ears of the animals was compared with the difference observed at the animals treated with the test substance and treated only with physiological saline solution, respectively. The difference in the ear weight was considered to be proportional to the extent of the contact dermatitis, while the value measured at the animals not treated with the test substance was taken as control, the dermatitis-diminishing effect of the test substances was obtained as expressed in percentage shown in Table 4.

## N=C(N)NCCC[C@H](N)C(=O)NCCCC[C@H](N)C(=O)N[C@@H](CC(=O)O)C(=O)O [Compound 12, Lys(Arg)--Asp] (H-Lys(Arg)-Asp-OH)
Resting macrophages
  Effect on the phagocytating capacity of resting macrophages %: -42%
Contact dermatitis
  Inhibition of the contact dermatitis %: -16%

## N=C(N)NCCC[C@H](N)C(=O)NCCCC[C@H](N)C(=O)N[C@H](CC(=O)O)C(=O)O [Compound 13, Lys(Arg)--D--Asp] (H-Lys(Arg)-[dD]-OH)
Resting macrophages
  Effect on the phagocytating capacity of resting macrophages %: -50%
